Data on twelve molecules can be found in patent US5128249A, “Stable sulpho-adenosyl-L-methionine (SAMe) salts, particularly suitable for oral pharmaceutical use” (Bioresearch S.p.a., priority 1984, dated 1992).

A short description of data set [1]: Absorption of SAMe salts in rats: areas under the SAMe plasmatic concentration curves (AUC). The data set is classed as in vivo, Sprague Dawley male rats. The conditions noted are these: 100 mg of active principle per kg, mean of 5 observations, extrapolated to infinity, 100 mg/kg; for AUC, intestinal administration: introduced into proximal jejunum; for AUC, oral administration: oral administration by gastric probe. On the procedure: The absorption was studied on 110 Sprague Dawley male rats of weight 210 g which had fasted since the previous evening.
The products are administered in solution or in a 2% gum arabic aqueous suspension.
For each product, 5 rats are operated under ether anesthesia to allow the substance under examination to be introduced into the proximal jejunum. The wall incision is closed by ligature, and the animals sutured.
The product is administered to a further 5 animals orally by means of a gastric probe.
A blood sample is withdrawn from the caudal vein at the commencement and at 10, 20, 40, 60, 90, 120, 180 and 240 minutes after administration, and the SAMe concentration is determined on the sample by the modified method of Baldessarini and Kopin (J. Neurochem. 13: 769, 1966).
The plasmatic concentration values less the initial values are plotted against time and the areas under the time curves to infinity calculated by the trapezium and curve extrapolation method.
Areas under the SAMe plasmatic concentration curves (AUC) for rats treated intestinally and orally with the listed products at a dosage corresponding to 100 mg of active principle per kg of body weight. The values represent the mean of 5 observations.

The nature of data set [2]: Solubility in water and organic solvents. The note with it: water.

In the case of `C[S+](CC[C@H](N)C(=O)[O-])C[C@H]1O[C@@H](n2cnc3c(N)ncnc32)[C@H](O)[C@@H]1O` (some centres unmarked) [DBS, SAMe tri dodecylbenzenesulphonate], in data set [1], the “AUC, intestinal administration” value is 17000 N moles · ml^-1 × min and the “AUC, oral administration” value is listed as 7800 N moles · ml^-1 × min.
The matching figures for `C[S+](CC[C@H](N)C(=O)[O-])C[C@H]1O[C@@H](n2cnc3c(N)ncnc32)[C@H](O)[C@@H]1O` (some centres unmarked) [Example S012, SAMe tri laurylsulphate]: 20800 N moles · ml^-1 × min and 8900 N moles · ml^-1 × min.
As for `C[S+](CC[C@H](N)C(=O)[O-])C[C@H]1O[C@@H](n2cnc3c(N)ncnc32)[C@H](O)[C@@H]1O` (some centres unmarked) [Example S16, SAMe tri hexadecanesulphonate], in data set [1], the “AUC, intestinal administration” value is given as 25300 N moles · ml^-1 × min and the “AUC, oral administration” value is 9600 N moles · ml^-1 × min.
`C[S+](CC[C@H](N)C(=O)[O-])C[C@H]1O[C@@H](n2cnc3c(N)ncnc32)[C@H](O)[C@@H]1O` (some centres unmarked) [DSS, SAMe tri dioctylsulphosuccinate]: in data set [1], the “AUC, intestinal administration” value was 18500 N moles · ml^-1 × min and the “AUC, oral administration” value is given as 8000 N moles · ml^-1 × min.
As a reminder, the solubility is the concentration that dissolves in the medium under given conditions. A low value points to little dissolved substance. In data set [2], `CCCCCCCCCCCCCCS(=O)(=O)[O-].[Na+]` displayed a solubility of 10000 µg/mL.
Take `C[S+](CC[C@H](N)C(=O)[O-])C[C@H]1O[C@@H](n2cnc3c(N)ncnc32)[C@H](O)[C@@H]1O` (some centres unmarked) [Example S18, SAMe tri octadecanesulphonate]: in data set [1], the “AUC, intestinal administration” value is 24100 N moles · ml^-1 × min and the “AUC, oral administration” value was 9400 N moles · ml^-1 × min.
The matching figures for `C[S+](CC[C@H](N)C(=O)[O-])C[C@H]1O[C@@H](n2cnc3c(N)ncnc32)[C@H](O)[C@@H]1O` (some centres unmarked) [Example S5, SAMe tri pentanesulphonate, reference compound]: 4900 N moles · ml^-1 × min and 950 N moles · ml^-1 × min.
Turning to `C[S+](CC[C@H](N)C(=O)[O-])C[C@H]1O[C@@H](n2cnc3c(N)ncnc32)[C@H](O)[C@@H]1O` (some centres unmarked) [Example S12, SAMe tri dodecanesulphonate], in data set [1], the “AUC, intestinal administration” value is reported as 25500 N moles · ml^-1 × min and the “AUC, oral administration” value is on record as 9700 N moles · ml^-1 × min.
The matching figures for `C[S+](CC[C@H](N)C(=O)[O-])C[C@H]1O[C@@H](n2cnc3c(N)ncnc32)[C@H](O)[C@@H]1O` (some centres unmarked) [Example S6, SAMe tri hexanesulphonate, reference compound]: 6900 N moles · ml^-1 × min and 980 N moles · ml^-1 × min.
As to `C[S+](CC[C@H](N)C(=O)[O-])C[C@H]1O[C@@H](n2cnc3c(N)ncnc32)[C@H](O)[C@@H]1O` (some centres unmarked) [Example S14, SAMe tri tetradecanesulphonate], in data set [1], the “AUC, intestinal administration” value is 26800 N moles · ml^-1 × min and the “AUC, oral administration” value is recorded as 9800 N moles · ml^-1 × min.
The matching figures for `C[S+](CC[C@H](N)C(=O)[O-])C[C@H]1O[C@@H](n2cnc3c(N)ncnc32)[C@H](O)[C@@H]1O` (some centres unmarked) [Example S1, SAMe tri methanesulphonate, reference compound]: 4400 N moles · ml^-1 × min and 870 N moles · ml^-1 × min.
In the case of `C[S+](CC[C@H](N)C(=O)[O-])C[C@H]1O[C@@H](n2cnc3c(N)ncnc32)[C@H](O)[C@@H]1O` (some centres unmarked) [SAMe SO4 -PTS, SAMe disulphatep-toluenesulphonate, reference compound], in data set [1], the “AUC, intestinal administration” value is 6700 N moles · ml^-1 × min and the “AUC, oral administration” value is recorded as 990 N moles · ml^-1 × min.
